Tests used:
[1] = target: TRPV4 (Rattus norvegicus, UniProt Q9ERZ8); test: Ca++ imaging in primary astrocytes, GSK101 stimulation; type: cell-based; settings: 5 nM GSK101
Procedure: (§1) FIGS. 28A-28B: Compound 16-8 inhibits TRPV4 in I° cells more potently than GSK205. […] Inset: Chondrocytes responding to activation with GSK101, fura-2 Ca++ imaging; right-hand image taken at 5 sec after GSK101 application. […] (FIG. 28B) 1° (primary) astrocytes (rat); dose-response comparison between 16-8 and GSK205 in response to 5 nM GSK101. Inset: Astrocytes responding to activation with GSK101; right-hand image taken at 5 sec after GSK101 application (mean±SEM, n=5 independent expts, 200 cells/expt; *p<0.05, t-test).
Astrocyte cultures were conducted following established protocols^64-66. Astrocytes were prepared from Sprague Dawley rat embryos (E18). Briefly, the isolated cortices were minced, and then incubated with trypsin and DNase. Dissociated cells were suspended in Dulbeccco's Modified Eagle's Medium (DMEM) supplemented with 10% fetal calf serum and penicillin/streptomycin (100 U/ml and 100 μg/ml, respectively). Thereafter, cell sus-pensions were plated in 75 cm^2 tissue culture flasks (10×10^6 cells/flask) which were pre-coated with poly-L-lysine (10 μg/ml). The cells were maintained in a […] incubator at 37° C.

[2] = target: T1, TRPV4 (Sus scrofa, UniProt B3VP30); test: Ca++ imaging in primary articular chondrocytes, GSK101 stimulation; type: cell-based; settings: primary articular chondrocytes (pig), 5 nM GSK101
T1 construct: primary cells, which express functional and biologically-relevant TRPV4 without directed over-expression of the channel; endogenous in cells; host or cells: primary porcine articular chondrocytes (femoral condyles)
Procedure: as §1
Primary porcine chondrocytes derived from femoral condyles of skeletally mature pigs were cultured and subjected to Ca++ imaging as described previously^19,32,62,63.

[3] = test system: mouse paw-pad skin, UVB-photodermatitis; test: UVB-exposed paw-pad skin after topical GSK205: histopathology and mediators; type: in vivo
Procedure: GSK205 topical treatment: A viscous solution of 68% EtOH/5% glycerol plus 1 mM or 5 mM GSK205 (none for control) was applied to hindpaws by rubbing in 20 μL, applied at time-points 1 hour and again 10 min before UV exposure.
Routine procedures were followed as described previously (Chen et al., 2009). Mice were perfused transcardially with 30 mL PBS, followed by 30 mL 4% paraformaldehyde. Tissues, including the L5 DRGs (bilateral), and footpad preparations, were dissected and post-fixed in 4% paraformaldehyde. Tissue blocks were further cryoprotected in 30% sucrose in PBS for 24-48 hours. For mouse TRPV4, keratin-specific antibodies, phospho-ERK, IL-6, IL-1β, CXCL5 and caspase-1, tissue was prepared as frozen blocks and subsequently sectioned on a cryostat. For CD68, CD15 (neutrophil elastase) and CD3, mouse skin was prepared by 2% PFA perfusion. Footpad and DRG sections (both at 6-10 μm) were thaw-mounted, blocked with 5% normal goat serum (NGS; Jackson), then incubated overnight at 4° C. with the following primary antibodies: rabbit anti-TRPV4 (1:300; Abcam), mouse anti-keratin 14 (1:300; Abcam against C-terminal peptide beyond residue 850); rabbit anti-keratin 14 (1:1000; Fuchs-Lab), rabbit anti-phosph-ERK1/2 (1:500; Cell signaling technologies), goat anti-IL-1β (1:800; Abcam), goat anti-IL-6 (1:200; Santa Cruz Biotechnology Inc); rabbit anti-caspase-1 (1:200; Biovision Research Products, CA); goat anti-mouse LIX/CXCL5 (1:200; R&D Systems Inc), anti-CD68, anti-[…], and anti-CD3 (AbDSerotec). Immunodetection was accomplished with appropriate fluorescently-labeled secondary antibodies (AlexaFluor595, AlexaFluor488-conjugated antibodies at 1:600; Invitrogen; for CD15 biotinylated secondary antibody from donkey, 1:400 followed by rhodamine-streptavidine 1:250), or with peroxidase-linked detection reagents (for CD68) for 2 hours at room-temperature. Sections were rinsed, mounted, and cover-slipped with fluoromount (Sigma). Digital micrographs were obtained using a BX61 Olympus upright microscope, also with a Zeiss LSM510 confocal, both equipped with high-res CCD camera, and acquired with constant exposure settings, using ISEE or Zeiss Zen software. Morphometric analysis was conducted using ImageJ freeware (v1.45) with tailored regions-of-interest that spared the nuclear compartment. ImageJ was also used for determination of DRG surface area.

[4] = target: TRPV4 (Homo sapiens, UniProt Q9HBA0); test: UVB-evoked Ca++ transient in TRPV4-transfected HEK293T cells; type: cell-based; design: expressed in transfected cells; settings: preexposure to 20 μM GSK205
Source text: (FIG. 2B) Focusing properties of the ball lens. […] (FIG. 2E) TRPV3 activation experiment. […] (FIG. 2F) TRPV4 selective activator GSK101-related findings.
To assess whether TRPV4 is sufficient for the UVB-evoked Ca++ influx, we introduced high levels of TRPV4 into HEK293 epithelial cells. TRPV4 expression endowed these cells with the ability to generate robust Ca++ signaling in response to UVB (FIG. 2G). Moreover, if they were pre-exposed to GSK205, the response was blocked. Thus, heterologous TRPV4 expression is sufficient for UVB radiation to cause a cellular Ca++ transient.

[5] = test system: primary mouse keratinocytes (1° MK); test: IL-1β secreted by cultured keratinocytes after UVB exposure (ELISA); type: cell-based; settings: 5 μM GSK205
Procedure: Before UV irradiation, culture media was replaced with PBS. The cells were then irradiated at a dose of 50 mJ/cm^2 with UVB. 24 hours later, supernatants were assayed using IL-1β ELISA (R&D Systems, Minneapolis, Minn.).

T1 sequence (B3VP30 1-871): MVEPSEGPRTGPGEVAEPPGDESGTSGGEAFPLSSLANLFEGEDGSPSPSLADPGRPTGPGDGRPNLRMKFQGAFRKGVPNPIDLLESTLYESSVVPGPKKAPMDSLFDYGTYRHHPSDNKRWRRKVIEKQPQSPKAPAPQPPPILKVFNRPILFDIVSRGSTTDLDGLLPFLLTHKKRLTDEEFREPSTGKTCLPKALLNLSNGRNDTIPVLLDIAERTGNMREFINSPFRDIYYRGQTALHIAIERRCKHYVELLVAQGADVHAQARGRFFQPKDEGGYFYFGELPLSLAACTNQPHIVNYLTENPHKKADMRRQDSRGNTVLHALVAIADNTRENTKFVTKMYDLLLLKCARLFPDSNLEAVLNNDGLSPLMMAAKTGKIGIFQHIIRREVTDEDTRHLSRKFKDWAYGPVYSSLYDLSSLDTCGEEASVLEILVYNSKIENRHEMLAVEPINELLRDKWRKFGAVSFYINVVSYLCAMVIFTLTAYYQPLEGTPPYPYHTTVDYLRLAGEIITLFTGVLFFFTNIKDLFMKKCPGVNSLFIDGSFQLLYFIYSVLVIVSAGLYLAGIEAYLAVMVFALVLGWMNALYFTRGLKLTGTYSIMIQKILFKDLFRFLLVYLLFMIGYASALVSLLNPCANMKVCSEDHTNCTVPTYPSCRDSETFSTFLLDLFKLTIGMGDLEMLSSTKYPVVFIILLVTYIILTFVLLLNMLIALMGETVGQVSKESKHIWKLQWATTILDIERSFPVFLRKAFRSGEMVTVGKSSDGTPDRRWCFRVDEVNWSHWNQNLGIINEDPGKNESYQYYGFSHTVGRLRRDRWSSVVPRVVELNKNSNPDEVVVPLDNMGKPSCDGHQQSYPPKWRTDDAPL
Sequence of TRPV4 (Rattus norvegicus, UniProt Q9ERZ8) (Q9ERZ8 whole entry): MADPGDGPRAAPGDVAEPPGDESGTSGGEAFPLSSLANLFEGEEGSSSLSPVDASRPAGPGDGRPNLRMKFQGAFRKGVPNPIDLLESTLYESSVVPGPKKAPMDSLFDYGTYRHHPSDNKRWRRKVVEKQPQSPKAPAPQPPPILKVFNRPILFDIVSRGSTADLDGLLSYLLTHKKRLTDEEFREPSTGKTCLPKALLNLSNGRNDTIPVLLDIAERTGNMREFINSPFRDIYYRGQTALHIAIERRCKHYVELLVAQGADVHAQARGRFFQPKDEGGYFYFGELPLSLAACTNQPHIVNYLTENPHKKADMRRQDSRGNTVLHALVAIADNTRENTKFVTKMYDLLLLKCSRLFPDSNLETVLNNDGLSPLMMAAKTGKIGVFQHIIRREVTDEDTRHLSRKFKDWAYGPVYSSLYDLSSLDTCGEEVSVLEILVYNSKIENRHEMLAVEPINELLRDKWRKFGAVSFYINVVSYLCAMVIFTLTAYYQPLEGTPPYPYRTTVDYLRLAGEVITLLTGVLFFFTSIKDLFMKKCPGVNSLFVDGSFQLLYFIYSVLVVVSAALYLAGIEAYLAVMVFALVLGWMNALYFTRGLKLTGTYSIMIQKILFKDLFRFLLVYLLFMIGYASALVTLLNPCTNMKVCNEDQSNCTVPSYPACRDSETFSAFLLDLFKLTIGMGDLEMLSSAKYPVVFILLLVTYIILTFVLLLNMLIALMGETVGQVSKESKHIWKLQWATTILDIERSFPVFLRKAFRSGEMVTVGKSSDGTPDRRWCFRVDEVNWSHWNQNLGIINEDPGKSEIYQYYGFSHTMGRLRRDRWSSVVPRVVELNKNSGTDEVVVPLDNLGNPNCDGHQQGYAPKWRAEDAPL
Sequence of TRPV4 (Homo sapiens, UniProt Q9HBA0) (Q9HBA0 whole entry, species assumed): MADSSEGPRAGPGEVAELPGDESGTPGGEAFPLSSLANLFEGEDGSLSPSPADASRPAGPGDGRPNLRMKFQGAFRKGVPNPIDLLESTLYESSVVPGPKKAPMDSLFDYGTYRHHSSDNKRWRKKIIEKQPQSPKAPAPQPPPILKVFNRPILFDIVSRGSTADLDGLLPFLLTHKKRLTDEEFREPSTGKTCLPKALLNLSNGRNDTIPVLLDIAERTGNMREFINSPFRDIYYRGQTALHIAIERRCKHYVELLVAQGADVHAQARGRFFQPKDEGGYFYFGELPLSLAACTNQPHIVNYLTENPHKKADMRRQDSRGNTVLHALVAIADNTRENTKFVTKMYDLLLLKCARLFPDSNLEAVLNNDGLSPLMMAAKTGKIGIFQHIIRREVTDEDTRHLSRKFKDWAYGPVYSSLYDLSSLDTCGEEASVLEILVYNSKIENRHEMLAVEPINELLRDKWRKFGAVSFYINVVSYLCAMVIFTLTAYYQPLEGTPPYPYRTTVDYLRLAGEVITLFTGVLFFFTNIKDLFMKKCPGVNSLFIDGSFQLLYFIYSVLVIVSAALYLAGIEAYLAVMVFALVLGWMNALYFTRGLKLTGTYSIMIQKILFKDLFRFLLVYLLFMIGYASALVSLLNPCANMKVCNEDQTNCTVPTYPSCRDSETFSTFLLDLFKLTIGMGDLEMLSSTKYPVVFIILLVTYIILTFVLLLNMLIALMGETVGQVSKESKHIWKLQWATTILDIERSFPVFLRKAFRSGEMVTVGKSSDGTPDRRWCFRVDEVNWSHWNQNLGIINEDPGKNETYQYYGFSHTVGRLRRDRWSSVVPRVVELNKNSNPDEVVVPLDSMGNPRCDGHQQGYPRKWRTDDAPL

SMILES	potency versus GSK205, dose-response of peak ΔCa++ [1]	potency versus GSK205, dose-response of peak ΔCa++ [2]	CXCL5 upregulation in UVB-exposed footpad ([3]; topical 5 mM GSK205)	IL-1β upregulation in UVB-exposed mouse skin ([3]; topical 5 mM GSK205)	IL-6 upregulation in UVB-exposed footpad ([3]; topical 5 mM GSK205)	histopathology of UVB-exposed paw skin ([3]; topical 5 mM GSK205)	Edn1 mRNA-expression in UVB-exposed paw-pad skin ([3]; topical 5 mM GSK205, 2 h and 24 h)	UVB-evoked Ca++-signal in TRPV4-transfected HEK293T cells [4]	UVB-induced increase in IL-1β secretion by 1° MK [5]
CN(CCc1ccc(Nc2nc(-c3ccccc3)cs2)cc1)Cc1ccccc1 [Compound 16-8]	significantly increased potency	significantly more potent than GSK205	–	–	–	–	–	–	–
CN(CCc1ccc(Nc2nc(-c3cccnc3)cs2)cc1)Cc1ccccc1 [GSK205]	–	–	significant blocks	failed to upregulate	significant blocks	virtual elimination of inflammation	unchanged	virtually eliminates	completely eliminated

Source: patent US11564911B2, “Small molecule dual-inhibitors of TRPV4 and TRPA1 for sanitizing and anesthetizing” (Duke University, priority 2016, dated 2023)
